Source: patent US20190311703A1, “ACOUSTIC TRAUMA SYSTEM FOR LARVAL FISH” (WASHINGTON STATE UNIVERSITY, priority 2018, published 2019)
Entries after “also recorded” stand apart in the source; their conditions may differ. Like-named read-outs stand apart in the source and are kept apart here. Where a SMILES comes first, the peptide text is derived from it. The star is where a group is joined. Cbz = O=C(OCc1ccccc1)*; CH2F = FC*

What was measured:
[1] = tested on: cochlear hair cells; conditions: guinea pigs; cited from earlier work
[2] = tested on: cochlear hair cells; conditions: mice; cited from earlier work
[3] = tested on: lateral line hair cells; test: Cavitation (acoustic trauma)-induced lateral line hair cell damage in larval zebrafish, hair cell survival assessment; format: in vivo; conditions: for protection from cavitation-induced hair cell damage (hair cell survival score vs DMSO control): blinded mini-screen of select redox library compounds, FIG. 12B
Protocol: At 5 days post-fertilization (dpf), fish were fed a light dusting of GEMMA micro 75 while in petri dishes. All noise exposure experiments were conducted at 6 dpf. Larval zebrafish were placed into wells A2-A5 and D2-D5 of a modified 24-well plate (3 fish per well) containing fish water and suspended atop 22 cm of water within the container 2 (stainless-steel canister) with the bottom of the 1 cm of the well plate 5 submerged (as generally shown in FIG. 1). While the well plate is disclosed often with the bottom of the plate being submerged, it is also to be understood that the entire well plate may be submerged without departing from the scope of the invention. Fish were exposed to cavitation for periods ranging from 20 to 120 minutes.
Immediately following cavitation fish were transferred to a 6-well plate 5 (6 fish per well) and kept in the fish facility on a 14 h light/10 h dark cycle for up to 5 post-exposure days. Each post-exposure morning (9-10 am) 50% of fish water was exchanged with fresh fish water and fish were lightly dusted with GEMMA food. Each post-exposure day evening (5-6 pm) fish were transferred to a fresh 6-well plate with completely fresh fish water.
Survival of lateral line hair cells was assessed by vital dye labeling in live fish and direct hair cells counts in live and fixed animals. The vital dye 2-(4-(dimethylamino)styryl)-N-ethylpyridinium iodide (DASPEI) is a marker of mitochondria membrane potential and stains lateral line hair cells. Fish were incubated in 0.005% DASPEI for 15 min, then rinsed twice with fish water and anesthetized with 0.001% MS-222. Using a Leica M165FC fluorescence dissection scope, 10 anterior neuromasts (IO1, IO2, IO3, IO4, M2, MI1, MI2, O2, SO1, and SO2) per fish were assessed based on fluorescent intensity. An intensity score of 2 signifies bright neuromast fluorescence, an intermediate score of 1 represents dim DASPEI labeling, while a 0 neuromast score equates to no neuromast fluorescence at a given neuromast's stereotyped position. The scores from 10 neuromasts per fish were summed such that each fish receives a score between 0 (no neuromast fluorescence) and 20 (full complement of hair cells in all 10 neuromasts).
All inhibitors (to test roles of cell death (including apoptosis, pyroptosis and necroptosis) and inflammation, were added to 6-well plates immediately after cavitation-exposed fish were removed from the device. Inhibitors were refreshed during the same intervals as fish water (twice daily) until the end of the desired exposure window. To test the role of protein synthesis, fish were pulse treated immediately after acoustic trauma for 4 h with the protein synthesis inhibitor cycloheximide (C7698; Sigma Aldrich). In separate experiments, acoustic trauma-exposed fish were continuously treated with either the pan caspase inhibitor Z-VAD-FMK ([…]; Sigma Aldrich) or the antioxidant D-methionine (F7111; UBPBio) to assess the contribution of caspase activation and ROS overproduction, respectively, in the acoustically stimulated lateral line. A small blinded screen was also conducted of select compounds from a larger redox library (BML-2835-0100; Enzo Life Sciences). Compounds chosen had either known protective effects in mammalian models of NIHL (as proof-of concept) or had not been previously tested against NIHL (to identify new protective molecules).

[4] = cited from earlier work
[5] = tested on: hair cells; conditions: intracochlear perfusion, guinea pigs; cited from earlier work

Question: Which “protection of cochlear hair cells from acoustic trauma” value [1] does the source give for `CSCC[C@@H](N)C(=O)O` [D-methionine] here?
Answer: protects cochlear hair cells

Question: And the “protection of cochlear hair cells from acoustic trauma” value [2]?
Answer: protects cochlear hair cells

Question: What about the “protection from cavitation-induced hair cell damage (hair cell survival)” value (“protection … (hair cell survival)” below) ([3]; 100 μM, FIG. 12A) of the same compound?
Answer: protected lateral line hair cells from cavitation damage

Question: And the “protection … (hair cell survival)” value ([3]; 500 μM, FIG. 12A)?
Answer: protected lateral line hair cells from cavitation damage

Question: What about the “protection … (hair cell survival)” value ([3]; 72 hour treatment, concentration not stated at place, FIG. 12A) of the same compound?
Answer: protects lateral line hair cells from cavitation

Question: And the “protection … (hair cell survival)” value ([3]; 72 hour treatment, concentration not stated at place, FIG. 12A, listed as D-Methionine)?
Answer: robustly protects lateral line hair cells from cavitation

Question: Which “prevention of NIHL, clinical trial outcome” value [4] does the source give for `CC(=O)N[C@@H](CS)C(=O)O` [N-acetylcysteine] here?
Answer: failed to meet clinical endpoints

Question: With `C[C@@H]1C[C@@H]([C@H](O)CC2CC(=O)NC(=O)C2)C(=O)[C@@H](C)C1` [cycloheximide] as the compound, how does the “protection … (hair cell survival)” value ([3]; 4 h pulse treatment immediately after acoustic stimulation, assessed 72 h post-exposure, FIG. 11A) read?
Answer: prevented hair cell loss; also recorded: reduces hair cell damage

Question: What about the “protection … (hair cell survival)” value ([3]; 4 h pulse treatment immediately after acoustic stimulation, assessed 72 h post-exposure, FIG. 11A, listed as Cycloheximide) of the same compound?
Answer: protected lateral line hair cells from cavitation in a dose-dependent manner

Question: Which “protection from cavitation-induced hair cell damage (hair cell survival score vs DMSO control)” value [3] does the source give for `N[C@@H](CCC(=O)N[C@@H](CS)C(=O)NCC(=O)O)C(=O)O` [glutathione] here?
Answer: significantly protected lateral line hair cells from cavitation-induced hair cell damage

Question: For `CC1=C(C)C(=O)C(CC[C@](C)(O)CCC[C@H](C)CCC[C@H](C)CCCC(C)C)=C(C)C1=O` [d-α-tocopherylquinone], which “protection from cavitation-induced hair cell damage (hair cell survival score vs DMSO control)” value [3] is on record?
Answer: significantly protected lateral line hair cells from cavitation-induced hair cell damage

Question: Which “protection from cavitation-induced hair cell damage (hair cell survival score vs DMSO control)” value [3] does the source give for `O=c1cc(-c2ccccc2)oc2cc(O)c(O)c(O)c12` [baicalein] here?
Answer: significantly protected lateral line hair cells from cavitation-induced hair cell damage

Question: For `CCOC(=O)/C=C/c1ccc(O)c(OC)c1` [ferulic acid ethylester], which “protection from cavitation-induced hair cell damage (hair cell survival score vs DMSO control)” value [3] is on record?
Answer: significantly protected lateral line hair cells from cavitation-induced hair cell damage

Question: For `COC(=O)C[C@H](NC(=O)[C@H](C)NC(=O)[C@@H](NC(=O)OCc1ccccc1)C(C)C)C(=O)CF` [Z-VAD, Z-VAD-FMK] (Cbz-Val-Ala-Asp(OMe)-CH2F), which “protection … (hair cell survival)” value ([3]; 1 μM, treatment for entire 72-hour post-exposure window, FIG. 11B) is on record?
Answer: significantly reduced cavitation-induced hair cell damage

Question: What about the “protection … (hair cell survival)” value ([3]; 72-h treatment starting immediately after acoustic stimulation, concentration not stated, FIG. 11B) of the same compound?
Answer: reduced cavitation-induced lateral line hair cell damage; also recorded: robustly protects hair cells from damage

Question: And the “hair cell loss following blast noise trauma” value [5]?
Answer: reduces hair cell loss

Question: Which “protection from cavitation-induced hair cell damage (hair cell survival score vs DMSO control)” value [3] does the source give for `CCCCS(=N)(=O)CCC(N)C(=O)O` (centres unmarked) [buthionine sulfoximine] here?
Answer: did not confer protection
